Test results published in patent US20090203685A1, “ANTI-PROLIFERATIVE COMPOUNDS FROM A 3-ARYL-COUMARINE OR 3-ARYL-QUINOLIN-2-ONE AND USES THEREOF” (EOS (ETHICAL ONCOLOGY SCIENCE) S.P.A., priority 2006, published 2009).

Columns and labels:
[1] = Viability (propidium iodide staining), A375; type: cell-based; settings: human, A375 cells (melanoma), 500 nM
Protocol: (§1) Propidium iodide (PI) cannot normally cross the cell membrane; it is thus excluded by viable cells but not from dying or dead cells, having a damaged membrane, where it intercalates into double-stranded nucleic acids and fluoresces when excited at 488 nm.
(§2) The cells are pelleted by gentle centrifugation 1200 rpm/5 min/4° C., then the supernatant is discarded and replaced by 1 mL of fresh medium. One hundred microliters of propidium iodide (40 μg/mL) are added to 400 μL of the cell suspension in a FACS tube and viability is measured by flow cytometry as the percentage of cells whose fluorescence recorded on FL-3 channel is comprised between 0 and 2.
(§3) Viability and cell cycle profile, tested with compound (01), at 500 nM: […]

[2] = Viability (propidium iodide staining), PC3; type: cell-based; settings: human, PC3 cells (prostate), 500 nM
Protocol: as §1, §2, §3

[3] = Viability (propidium iodide staining), NCI-H460; type: cell-based; settings: human, NCI-H460 cells (lung), NCI-H460 lung (NSCLC), 500 nM
Protocol: as §1, §2, §3

CEM = assay: Cell cycle analysis, CEM; type: cell-based; settings: 500 nM
Protocol: (§4) The cells are pelleted by gentle centrifugation 1200 rpm/5 min/4° C., then the supernatant is discarded and the cells are fixed with 1 mL of PBS/Ethanol 70% overnight at −20° C. The tubes are then centrifuged during 5 minutes at 1200 rpm and the supernatant is removed. The pellet is then re-suspended in 450 μL of PBS before 50 μL of RNAse (1 mg/mL) and 5 μL of propidium iodide (2 mg/mL) are added. Each tube is left 30 minutes at 37° C. and immediately analysed by flow cytometry after incubation.
(§5) A biparametric dot plot representation FL3 peak vs FL3 integer is plotted and the cells located on the diagonal are gated and analysed on a histogram representing the number of cells as a function of the FL3 peak.
(§6) To assess the relative position of cursors defining relative proportion of cells in subG1, G1, S or G2 phase of the cell cycle, G1 and G2 peaks are to be defined first:
(§7) The G1 peak is defined as the major peak in absence of treatment (generally X=200);
(§8) The G2 peak is centered on the value which is twice the value of the G1 peak (generally X=400).
(§9) Cells in subG1 phase are plotted in the part of the histogram preceding the G1 peak (generally X<200) and cells in S phase are enclosed in the area between the G1 and G2 peaks.
(§10) On this graphic, subG1, G1, S and G2/M phases of the cell cycle can thus be defined.
as §3

[4] = tested on: prostate and lung tumor cells; assay: Viability and cell cycle profile, conclusion for prostate and lung tumor cells; type: cell-based; settings: 500 nM; cell cycle arrest at entry into mitosis
Protocol: as §1, §2, §4, §3

[5] = Viability (propidium iodide staining), Jurkat; type: cell-based; settings: human, Jurkat cells, 500 nM
Protocol: as §1, §2, §3

PC3 = assay: Cell cycle analysis, PC3; type: cell-based; settings: 500 nM
Protocol: as §4, §5, §6, §7, §8, §9, §10, §3

NCI-H460 = assay: Cell cycle analysis, NCI-H460; type: cell-based, human; settings: 500 nM
Protocol: as §4, §5, §6, §7, §8, §9, §10, §3

[6] = tested on: lymphoid and myeloid tumor cells; assay: Viability and cell cycle profile, conclusion for lymphoid and myeloid tumor cells; type: cell-based; settings: 500 nM; apoptotic cell cycle profile
Protocol: as §1, §2, §4, §3

U937 = assay: Cell cycle analysis, U937; type: cell-based, human; settings: 500 nM
Protocol: as §4, §5, §6, §7, §8, §9, §10, §3

MRC5 = assay: Cell cycle analysis, MRC5; type: cell-based; settings: 500 nM
Protocol: as §4, §5, §6, §7, §8, §9, §10, §3

U937 cells = assay: Apoptosis assays by flow cytometry (caspase 3, annexin-V, sub-G1, G2/M, PI) in U937 cells; type: cell-based, human; settings: 0.5 μM, 4 to 24 hours
Protocol: FIG. 4: This figure depicts the time course of cellular effects induced by 0.5 μM of compound 01 in U937 cells.
The percentage of cells showing activated Caspase 3 and phosphadityl serine exposure at the outer face of the plasma membrane were determined by flow cytometry, according the enclosed protocols. Both assays enable to detect early markers of apoptosis. […] Such DNA content is classically used as a marker of apoptosis. […] Finally, in this same experiment, the percentage of dead cells was determined by incorporation of propidium iodine. […]
Wells corresponding to 4, 6, 8, 10 hours of incubation and Control 1 were analyzed on day 1.
Wells corresponding to 12, 14, 16, 20, 24 hours of incubation and Control 2 were analyzed on day 2. […]
Briefly, 5×10^5 cells were pelleted by centrifugation 1600 rpm/4° C., resuspended in 100 μl of ice-cold 1× Annexin-V Binding Buffer containing 1 μl of Annexin V-FITC solution and 5 μl of PI (250 μg/ml). After 15 minutes of incubation on ice in the dark, 400 μl of 1× binding buffer were added and cell preparations analysed by flow cytometry. […]
For each data point, a minimum of 20.000 cells were analysed.
Caspase-3,7 activity and Annexin-V binding were quantified using the FL-1 channel while PI staining was quantified using the FL-4 channel. […]

A375 = assay: Cell cycle analysis, A375; type: cell-based; settings: 500 nM
Protocol: as §4, §5, §6, §7, §8, §9, §10, §3

Question: What does the source list for `COc1cc(NC(=S)NC(=O)/C=C/c2ccco2)ccc1-c1cc2ccccc2oc1=O` [Compound 01, (2E)-3-(2-furyl)-N-({[3-methoxy-4-(2-oxo-2H-chromen-3-yl)phenyl]amino}carbonothioyl)acrylamide]?
Answer: viability at 48 h, 0.5 µM ([1]; 48 h): 65%; viability at 72 h, 0.5 µM ([1]; 72 h): 35%; viability at 48 h, 0.5 µM ([2]; 48 h): 92%; viability at 72 h, 0.5 µM ([2]; 72 h): 90%; viability at 48 h, 0.5 µM ([3]; 48 h): 80%; viability at 72 h, 0.5 µM ([3]; 72 h): 80%; Cell cycle profile - 72 h (CEM): Strong sub-G1; Effect on prostate and lung tumor cells [4]: cytostatic effect; viability at 48 h, 0.5 µM ([5]; 48 h): 4%; viability at 72 h, 0.5 µM ([5]; 72 h): 1%; Cell cycle profile - 72 h (PC3): G2/M accumulation; Cell cycle profile - 72 h (NCI-H460; G2/M phase fraction): G2/M accumulation; Cell cycle profile - 72 h (NCI-H460; sub-G1 fraction): Strong sub-G1; Effect on lymphoid and myeloid tumor cells [6]: cytotoxic effect; Cell cycle profile - 72 h (U937): Strong sub-G1; Cell cycle profile - 72 h (MRC5): G2/M accumulation; Cytostatic effect on U937 cells (early increase of G2/M population) (U937 cells): cytostatic effect; Induction of apoptosis (activated caspase 3, phosphatidylserine exposure, sub-G1 DNA content) (U937 cells): induces apoptosis; Cell cycle profile - 72 h (A375; G2/M phase fraction): G2/M accumulation; Cell cycle profile - 72 h (A375; sub-G1 fraction): Strong sub-G1
